The results in this text go back to patent publication US20250115590A1, “MATRIX METALLOPROTEINASE (MMP) INHIBITORS AND METHODS OF USE THEREOF” (Foresee Pharmaceuticals USA, Inc., priority 2018, published 2025).

recombinant human MMP-12 catalytic domain, sequence (P39900 106-268): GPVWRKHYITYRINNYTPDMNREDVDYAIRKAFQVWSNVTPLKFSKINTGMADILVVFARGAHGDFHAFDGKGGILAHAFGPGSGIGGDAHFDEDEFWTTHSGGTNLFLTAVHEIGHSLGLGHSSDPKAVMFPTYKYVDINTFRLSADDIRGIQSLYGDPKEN
recombinant human MMP-10, sequence (P09238 99-476): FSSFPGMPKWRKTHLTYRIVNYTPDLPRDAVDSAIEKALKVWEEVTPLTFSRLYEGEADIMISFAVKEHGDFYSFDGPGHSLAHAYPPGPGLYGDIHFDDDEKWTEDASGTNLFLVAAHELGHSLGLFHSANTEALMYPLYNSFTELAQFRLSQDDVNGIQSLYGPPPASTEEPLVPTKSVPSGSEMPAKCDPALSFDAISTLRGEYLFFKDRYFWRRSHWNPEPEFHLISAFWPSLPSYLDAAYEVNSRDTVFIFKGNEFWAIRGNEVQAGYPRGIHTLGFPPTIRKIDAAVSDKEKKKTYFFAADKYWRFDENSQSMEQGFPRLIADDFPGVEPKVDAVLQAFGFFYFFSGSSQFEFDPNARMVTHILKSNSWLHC
recombinant human MMP-2, sequence (P08253 110-660): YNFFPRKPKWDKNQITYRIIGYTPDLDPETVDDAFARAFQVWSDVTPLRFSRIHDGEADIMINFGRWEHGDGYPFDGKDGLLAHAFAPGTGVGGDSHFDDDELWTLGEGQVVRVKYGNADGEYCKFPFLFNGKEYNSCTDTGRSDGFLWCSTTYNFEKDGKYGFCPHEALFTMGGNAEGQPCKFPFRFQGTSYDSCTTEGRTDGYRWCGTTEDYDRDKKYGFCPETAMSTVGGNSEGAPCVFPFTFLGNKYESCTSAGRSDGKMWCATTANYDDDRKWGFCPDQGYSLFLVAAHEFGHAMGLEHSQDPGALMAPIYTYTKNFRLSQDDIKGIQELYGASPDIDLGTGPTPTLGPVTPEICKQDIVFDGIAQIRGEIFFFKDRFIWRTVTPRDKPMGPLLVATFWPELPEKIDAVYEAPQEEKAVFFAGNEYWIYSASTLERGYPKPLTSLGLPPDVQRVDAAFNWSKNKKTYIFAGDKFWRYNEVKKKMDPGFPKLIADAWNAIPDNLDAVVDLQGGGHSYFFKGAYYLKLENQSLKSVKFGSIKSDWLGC

The target of one assay is recombinant human MMP-3 (Homo sapiens (Human), UniProt P08254). Kind of assay: MMP selectivity assay, MMP-3. The settings on record: Table 2 selectivity profile; read-out: MMP-3 Activity (IC50 class). The assay is classed as biochemical. The procedure: (§1) The inhibitory effect of compounds on the rate of cleaving fluorogenic MMP substrate (Enzo, BML-P128) by recombinant human MMP-12 catalytic domain (Enzo, BML-SE138) was carried out by methods known in the art. Briefly, to each well of a 96-well black opaque plate, all the reagents were sequentially added by pipetting, and the final reaction contained 4 nM of recombinant human MMP-12 catalytic domain, […] of fluorogenic MMP substrate, and various concentrations (0.15 nM to 10,000 nM) of tested compound dilutions in HEPES buffer (pH 7.5) containing 10 mM of CaCl2, 0.01% Brij® 35 (polyoxyethylene (23) lauryl ether), and 0.1 mg/ml of BSA.
recombinant human MMP-3, sequence (P08254 100-477): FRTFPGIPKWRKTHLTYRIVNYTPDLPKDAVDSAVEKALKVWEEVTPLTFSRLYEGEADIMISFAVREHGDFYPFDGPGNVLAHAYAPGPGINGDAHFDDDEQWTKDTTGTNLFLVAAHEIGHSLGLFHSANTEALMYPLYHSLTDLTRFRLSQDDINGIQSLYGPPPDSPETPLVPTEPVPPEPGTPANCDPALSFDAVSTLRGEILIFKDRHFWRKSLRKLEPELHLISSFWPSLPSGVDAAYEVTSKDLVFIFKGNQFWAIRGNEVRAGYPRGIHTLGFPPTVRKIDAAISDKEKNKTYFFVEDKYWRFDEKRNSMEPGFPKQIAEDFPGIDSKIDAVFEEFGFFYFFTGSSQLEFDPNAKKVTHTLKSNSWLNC
(§2) The enzyme and compounds were pre-incubated on a shaker to mix in wells. After an hour of mixing, fluorogenic substrate was added to each well. Reaction without enzyme was used as a blank control in the plate. The plate was then fed into a plate reader to measure fluorescence intensity at Excitation/Emission wavelengths of 340 nm/440 nm every 10 mins for at least 1 hour at 37° C. The IC50 of each compound in MMP-12 inhibition was determined by using a readout obtained at time point 30 minutes.
(§3) The MMP selectivity assay was performed by using other recombinant human MMPs, including MMP-1, MMP-2, MMP-3, MMP-7, MMP-8, MMP-9, MMP-10, MMP-13, and MMP-14. The IC50 of the compounds for the other recombinant human MMPs was determined as described above in Example 1, and are shown in Table 2.
As usually defined, the IC50 is the concentration that gives 50% inhibition. For `O=C1NC(=O)C(c2sccc2Sc2ccc(OCc3ccccc3CO)cc2)N1` (stereo not shown) [TC5], the IC50 was more than 1000 nM.

The next assay addresses recombinant human MMP-13 (Homo sapiens (Human), UniProt P45452). Briefly: MMP selectivity assay, MMP-13. The class given is biochemical. The settings on record: Table 2 selectivity profile; read-out: MMP-13 Activity (IC50 class). The procedure: as §1, §2, §3
Take `O=C1NC(=O)C(c2ccncc2Sc2ccc(OCc3cccc(CO)c3)cc2)N1` (stereo not shown) [PC-13]: the IC50 was more than 1000 nM.
As to `O=C1NC(=O)C(c2sccc2Sc2ccc(OCc3cccc(CO)c3)cc2)N1` (stereo not shown) [TC4], the IC50 was more than 1000 nM.

The target in another assay is recombinant human MMP-7 (Homo sapiens (Human), UniProt P09237). Briefly: MMP selectivity assay, MMP-7. The assay is classed as biochemical. To be noted: Table 2 selectivity profile; read-out: MMP-7 Activity (IC50 class). The procedure: as §1
recombinant human MMP-7, sequence (P09237 95-267): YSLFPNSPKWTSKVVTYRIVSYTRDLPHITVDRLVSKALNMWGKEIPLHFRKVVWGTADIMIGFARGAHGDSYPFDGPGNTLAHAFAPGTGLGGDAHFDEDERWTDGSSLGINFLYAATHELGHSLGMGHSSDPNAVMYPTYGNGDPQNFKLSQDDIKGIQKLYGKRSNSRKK
The enzyme and compounds were pre-incubated on a shaker to mix in wells. After an hour of mixing, fluorogenic substrate was added to each well. […] The plate was then fed into a plate reader to measure fluorescence intensity at Excitation/Emission wavelengths of 340 nm/440 nm every 10 mins for at least 1 hour at 37° C. The IC50 of each compound in MMP-12 inhibition was determined by using a readout obtained at time point 30 minutes.
as §3
For `Cc1cc(COc2ccc(Sc3ccsc3C3NC(=O)NC3=O)cc2)ccn1` (stereo not shown) [TC8], the IC50 was more than 1000 nM.

Another assay has as its target recombinant human MMP-14 (Homo sapiens (Human), UniProt P50281). Briefly: MMP selectivity assay, MMP-14. The assay is classed as biochemical. The settings on record: Table 2 selectivity profile; read-out: MMP-14 Activity (IC50 class). The procedure:
as §1, §2, §3
Consider `CCC1(c2cnccc2Sc2ccc(OCc3cccc(C)c3)cc2)NC(=O)NC1=O` (stereo not shown) [PC-22], for which the IC50 is more than 1000 nM.
As to `Cc1cc(COc2ccc(Sc3ccncc3C3NC(=O)NC3=O)c(F)c2)ccn1` (stereo not shown) [PC-50], the IC50 was more than 1000 nM.
On to `O=C1NC(=O)C(c2sccc2Sc2ccc(OCc3cccc(CO)c3)cc2)N1` (stereo not shown) [TC4], for which the IC50 was more than 1000 nM.

The target in another assay is recombinant human MMP-9 (Homo sapiens (Human), UniProt P14780). Kind of assay: MMP selectivity assay, MMP-9. To be noted: Table 2 selectivity profile; read-out: MMP-9 Activity (IC50 class). The assay is classed as biochemical. How it is done: as §1, §2, §3
recombinant human MMP-9, sequence (P14780 94-707): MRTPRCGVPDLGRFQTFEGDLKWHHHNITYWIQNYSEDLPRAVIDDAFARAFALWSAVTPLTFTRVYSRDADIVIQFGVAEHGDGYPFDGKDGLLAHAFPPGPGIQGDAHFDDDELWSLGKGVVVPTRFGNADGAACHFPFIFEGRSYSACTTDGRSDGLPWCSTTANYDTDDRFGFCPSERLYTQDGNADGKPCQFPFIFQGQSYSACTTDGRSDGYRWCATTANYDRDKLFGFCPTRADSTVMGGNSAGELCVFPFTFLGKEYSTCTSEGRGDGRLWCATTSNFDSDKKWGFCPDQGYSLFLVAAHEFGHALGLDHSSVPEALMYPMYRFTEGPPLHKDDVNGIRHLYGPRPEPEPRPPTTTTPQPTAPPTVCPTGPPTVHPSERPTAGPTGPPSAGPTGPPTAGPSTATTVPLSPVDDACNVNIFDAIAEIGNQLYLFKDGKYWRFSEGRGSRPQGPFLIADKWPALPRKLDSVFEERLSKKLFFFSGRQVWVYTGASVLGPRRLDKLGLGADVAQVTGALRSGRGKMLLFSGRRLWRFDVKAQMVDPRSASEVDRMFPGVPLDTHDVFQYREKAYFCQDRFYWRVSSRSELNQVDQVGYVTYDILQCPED
As for `O=C1NC(=O)C(c2ccncc2Sc2ccc(OCc3ccccc3CO)cc2)N1` (stereo not shown) [PC-12], the IC50 is more than 1000 nM.
`O=C1NC(=O)C(c2ccncc2Sc2ccc(OCc3cccc(CO)c3)cc2)N1` (stereo not shown) [PC-13]: the IC50 is more than 1000 nM.
Same read-out and setting: the figure for `CCC1(c2cnccc2Sc2ccc(OCc3cccc(C)c3)cc2)NC(=O)NC1=O` (stereo not shown) [PC-22] is more than 1000 nM; for `Cc1cc(COc2ccc(Sc3ccncc3C3NC(=O)NC3=O)c(F)c2)ccn1` (stereo not shown) [PC-50] it is more than 1000 nM.
Still for that read-out and setting: with `O=C1NC(=O)C(c2sccc2Sc2ccc(OCc3cccc(CO)c3)cc2)N1` (stereo not shown) [TC4] the figure was more than 1000 nM; with `O=C1NC(=O)C(c2sccc2Sc2ccc(OCc3ccccc3CO)cc2)N1` (stereo not shown) [TC5], more than 1000 nM.

Another assay deals with recombinant human MMP-8 (Homo sapiens (Human), UniProt P22894). Briefly: MMP selectivity assay, MMP-8. The class given is biochemical. The settings on record: Table 2 selectivity profile; read-out: MMP-8 Activity (IC50 class). How it is done: as §1, §2, §3
recombinant human MMP-8, sequence (P22894 101-467): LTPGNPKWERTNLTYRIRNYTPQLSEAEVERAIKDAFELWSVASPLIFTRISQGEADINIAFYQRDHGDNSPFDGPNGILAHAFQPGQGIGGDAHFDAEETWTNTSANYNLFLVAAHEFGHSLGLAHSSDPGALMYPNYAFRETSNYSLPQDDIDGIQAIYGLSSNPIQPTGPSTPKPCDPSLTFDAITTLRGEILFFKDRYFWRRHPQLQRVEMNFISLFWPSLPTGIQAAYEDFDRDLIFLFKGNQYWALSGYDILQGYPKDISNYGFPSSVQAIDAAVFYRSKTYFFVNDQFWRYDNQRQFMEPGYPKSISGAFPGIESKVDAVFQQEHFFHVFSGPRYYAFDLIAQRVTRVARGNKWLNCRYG
For the compound `O=C1NC(=O)C(c2ccncc2Sc2ccc(OCc3ccccc3CO)cc2)N1` (stereo not shown) [PC-12], the IC50 was more than 1000 nM.
Still for that read-out and setting: the figure for `O=C1NC(=O)C(c2ccncc2Sc2ccc(OCc3cccc(CO)c3)cc2)N1` (stereo not shown) [PC-13] is more than 1000 nM; for `CCC1(c2cnccc2Sc2ccc(OCc3cccc(C)c3)cc2)NC(=O)NC1=O` (stereo not shown) [PC-22] it is more than 1000 nM.
Take `O=C1NC(=O)C(c2sccc2Sc2ccc(OCc3ccccc3CO)cc2)N1` (stereo not shown) [TC5]: the IC50 was more than 1000 nM.

A further assay concerns the target recombinant human MMP-2 (Homo sapiens (Human), UniProt P08253). Kind of assay: MMP selectivity assay, MMP-2. The assay is classed as biochemical. The settings on record: Table 2 selectivity profile; read-out: MMP-2 Activity (IC50 class). How it is done: as §1, §2, §3
On to `O=C1NC(=O)C(c2ccncc2Sc2ccc(OCc3ccccc3CO)cc2)N1` (stereo not shown) [PC-12], for which the IC50 was more than 1000 nM.
Regarding `O=C1NC(=O)C(c2ccncc2Sc2ccc(OCc3cccc(CO)c3)cc2)N1` (stereo not shown) [PC-13], the IC50 is more than 1000 nM.
For the compound `CCC1(c2cnccc2Sc2ccc(OCc3cccc(C)c3)cc2)NC(=O)NC1=O` (stereo not shown) [PC-22], the IC50 is more than 1000 nM.
Regarding `O=C1NC(=O)C(c2sccc2Sc2ccc(OCc3cccc(CO)c3)cc2)N1` (stereo not shown) [TC4], the IC50 is more than 1000 nM.
As for `O=C1NC(=O)C(c2sccc2Sc2ccc(OCc3ccccc3CO)cc2)N1` (stereo not shown) [TC5], the IC50 was more than 1000 nM.

The next assay has as its target recombinant human MMP-10 (Homo sapiens (Human), UniProt P09238). Kind of assay: MMP selectivity assay, MMP-10. The class given is biochemical. To be noted: Table 2 selectivity profile; read-out: MMP-10 Activity (IC50 class). How it is done:
as §1, §2, §3
For `O=C1NC(=O)C(c2ccncc2Sc2ccc(OCc3ccccc3CO)cc2)N1` (stereo not shown) [PC-12], the IC50 is more than 1000 nM.
For `O=C1NC(=O)C(c2ccncc2Sc2ccc(OCc3cccc(CO)c3)cc2)N1` (stereo not shown) [PC-13], the IC50 is more than 1000 nM.
In the case of `CCC1(c2cnccc2Sc2ccc(OCc3cccc(C)c3)cc2)NC(=O)NC1=O` (stereo not shown) [PC-22], the IC50 was more than 1000 nM.
`Cc1cc(COc2ccc(Sc3ccncc3C3NC(=O)NC3=O)c(F)c2)ccn1` (stereo not shown) [PC-50]: the IC50 was more than 1000 nM.
Consider `O=C1NC(=O)C(c2sccc2Sc2ccc(OCc3cccc(CO)c3)cc2)N1` (stereo not shown) [TC4], for which the IC50 is more than 1000 nM.
As for `O=C1NC(=O)C(c2sccc2Sc2ccc(OCc3ccccc3CO)cc2)N1` (stereo not shown) [TC5], the IC50 is more than 1000 nM.

A further assay has as its target recombinant human MMP-12 catalytic domain (Homo sapiens (Human), UniProt P39900). Briefly: MMP-12 inhibitory assay (fluorogenic substrate cleavage). The class given is biochemical. To be noted: Table 2 selectivity profile; read-out: MMP-12 Activity (IC50 class). How it is done:
as §1, §2
`O=C1NC(=O)C(c2ccncc2Sc2ccc(OCc3ccccc3CO)cc2)N1` (stereo not shown) [PC-12]: the IC50 was less than 10 nM.
Turning to `O=C1NC(=O)C(c2ccncc2Sc2ccc(OCc3cccc(CO)c3)cc2)N1` (stereo not shown) [PC-13], the IC50 was less than 10 nM.
With `CCC1(c2cnccc2Sc2ccc(OCc3cccc(C)c3)cc2)NC(=O)NC1=O` (stereo not shown) [PC-22], the IC50 was less than 10 nM.
Turning to `Cc1cc(COc2ccc(Sc3ccncc3C3NC(=O)NC3=O)c(F)c2)ccn1` (stereo not shown) [PC-50], the IC50 was less than 10 nM.
Still for that read-out and setting: the figure for `O=C1NC(=O)C(c2sccc2Sc2ccc(OCc3cccc(CO)c3)cc2)N1` (stereo not shown) [TC4] is less than 10 nM.
Turning to `O=C1NC(=O)C(c2sccc2Sc2ccc(OCc3ccccc3CO)cc2)N1` (stereo not shown) [TC5], the IC50 is less than 10 nM.
In the case of `Cc1cc(COc2ccc(Sc3ccsc3C3NC(=O)NC3=O)cc2)ccn1` (stereo not shown) [TC8], the IC50 is less than 10 nM.

Staying with this assay, now noted: readout at 30 minutes, 37° C., pH 7.5; Table 1; read-out: MMP-12 IC50.
Turning to `Cc1cc(COc2ccc(Sc3ocnc3C3NC(=O)NC3=O)cc2)ccn1` (stereo not shown) [OC-11], the IC50 is more than 1000 nM.
For the compound `O=C1NC(=O)C(c2ccncc2Sc2ccc(OCc3ccccc3CO)cc2)N1` (stereo not shown) [PC-12], the IC50 is less than 10 nM.
As to `O=C1NC(=O)C(c2ccncc2Sc2ccc(OCc3cccc(CO)c3)cc2)N1` (stereo not shown) [PC-13], the IC50 was less than 10 nM.
For the compound `CCC1(c2cnccc2Sc2ccc(OCc3cccc(C)c3)cc2)NC(=O)NC1=O` (stereo not shown) [PC-22], the 50% inhibitory concentration (IC50) is less than 10 nM.
Turning to `Cc1cc(COc2ccc(Sc3ccncc3C3NC(=O)NC3=O)c(F)c2)ccn1` (stereo not shown) [PC-50], the IC50 was less than 10 nM.
Take `O=C1NC(=O)C(c2sccc2Sc2ccc(OCc3cccc(CO)c3)cc2)N1` (stereo not shown) [TC4]: the IC50 was less than 10 nM.
With `O=C1NC(=O)C(c2sccc2Sc2ccc(OCc3ccccc3CO)cc2)N1` (stereo not shown) [TC5], the IC50 is less than 10 nM.
As for `Cc1cc(COc2ccc(Sc3ccsc3C3NC(=O)NC3=O)cc2)ccn1` (stereo not shown) [TC8], the IC50 was less than 10 nM.
